Experimental data taken from patent US10597380B2, “Pyridazinone-based broad spectrum anti-influenza inhibitors” (Hoffmann-La Roche Inc., priority 2017, dated 2020).

Test system: Influenza A/WSN/33-Luciferase virus
Test: microbe, parasite or virus in culture
Type: cell-based
Details: A549, 72 h, luciferase signal three days later, read-out: IC50 antiviral activity (Luciferase reporter assay)

| SMILES | IC50 [nM] |
| --- | --- |
| O=C(O)[C@H]1CCCN1CCn1cccc(Nc2nn(-c3ccc(OC(F)(F)F)cc3)c(=O)c3ccccc23)c1=O [Example 116, (2R)-1-[2-[2-oxo-3-[[4-oxo-3-[4-(trifluoromethoxy)phenyl]phthalazin-1-yl]amino]-1-pyridyl]ethyl]pyrrolidine-2-carboxylic acid] | 261 |
| O=C(O)CCCn1cc(Cl)cc(Nc2nn(-c3ccc(OC(F)(F)F)cc3)c(=O)c3c2CCC3)c1=O [Example 117, 4-[5-chloro-2-oxo-3-[[4-oxo-3-[4-(trifluoromethoxy)phenyl]-6,7-dihydro-5H-cyclopenta[d]pyridazin-1-yl]amino]-1-pyridyl]butanoic acid] | 114 |
| O=C(O)CCCn1cccc(Nc2nn(-c3ccc(OC(F)(F)F)cc3)c(=O)c3c2CCC3)c1=O [Example 118, 4-[2-oxo-3-[[4-oxo-3-[4-(trifluoromethoxy)phenyl]-6,7-dihydro-5H-cyclopenta[d]pyridazin-1-yl]amino]-1-pyridyl]butanoic acid] | 953 |
| O=C(O)COCCn1cccc(Nc2nn(-c3ccc(OC(F)(F)F)cc3)c(=O)c3c2CCC3)c1=O [Example 119, 2-[2-[2-oxo-3-[[4-oxo-3-[4-(trifluoromethoxy)phenyl]-6,7-dihydro-5H-cyclopenta[d]pyridazin-1-yl]amino]-1-pyridyl]ethoxy]acetic acid] | 3760 |
| O=C(O)C1CCN(CCn2cccc(Nc3nn(-c4ccc(OC(F)(F)F)cc4)c(=O)c4c3CCC4)c2=O)C1 (centres unmarked) [Example 120, 1-[2-[2-oxo-3-[[4-oxo-3-[4-(trifluoromethoxy)phenyl]-6,7-dihydro-5H-cyclopenta[d]pyridazin-1-yl]amino]-1-pyridyl]ethyl]pyrrolidine-3-carboxylic acid] | 1120 |
| O=C(O)C1CCCN1CCn1cccc(Nc2nn(-c3ccc(OC(F)(F)F)cc3)c(=O)c3c2CCC3)c1=O (centres unmarked) [Example 121, 1-[2-[2-oxo-3-[[4-oxo-3-[4-(trifluoromethoxy)phenyl]-6,7-dihydro-5H-1-yl]amino]-1-pyridyl]ethyl]pyrrolidine-2-carboxylic acid] | 156 |
| O=C(O)C1CN(CCn2cccc(Nc3nn(-c4ccc(OC(F)(F)F)cc4)c(=O)c4c3CCC4)c2=O)CCO1 (centres unmarked) [Example 122, 4-[2-[2-oxo-3-[[4-oxo-3-[4-(trifluoromethoxy)phenyl]-6,7-dihydro-5H-cyclopenta[d]pyridazin-1-yl]amino]-1-pyridyl]ethyl]morpholine-2-carboxylic acid] | 3710 |
| O=C(O)C1COCCN1CCn1cccc(Nc2nn(-c3ccc(OC(F)(F)F)cc3)c(=O)c3c2CCC3)c1=O (centres unmarked) [Example 123, 4-[2-[2-oxo-3-[[4-oxo-3-[4-(trifluoromethoxy)phenyl]-6,7-dihydro-5H-cyclopenta[d]pyridazin-1-yl]amino]-1-pyridyl]ethyl]morpholine-3-carboxylic acid] | 485 |
| O=C(O)CCCn1cncc(Nc2nn(-c3ccc(OC(F)(F)F)cc3)c(=O)c3c2CCC3)c1=O [Example 124, 4-[6-oxo-5-[[4-oxo-3-[4-(trifluoromethoxy)phenyl]-6,7-dihydro-5H-cyclopenta[d]pyridazin-1-yl]amino]pyrimidin-1-yl]butanoic acid] | 4930 |
| Cn1cccc(Nc2nn(-c3ccc(OC(F)(F)F)cc3)c(=O)c3cc(O)ccc23)c1=O [Example 125, 7-Hydroxy-4-[(1-methyl-2-oxo-3-pyridyl)amino]-2-[4-(trifluoromethoxy)phenyl]phthalazin-1-one] | 88 |
| Cn1cccc(Nc2nn(-c3ccc(OC(F)(F)F)cc3)c(=O)c3ccc(O)cc23)c1=O [Example 126, 6-Hydroxy-4-[(1-methyl-2-oxo-3-pyridyl)amino]-2-[4-(trifluoromethoxy)phenyl]phthalazin-1-one] | 191 |
| O=c1c(Nc2nn(-c3ccc(OC(F)(F)F)cc3)c(=O)c3c2CCC3)cccn1CC1COCCN1 (centres unmarked) [Example 127, 1-[[1-(morpholin-3-ylmethyl)-2-oxo-3-pyridyl]amino]-3-[4-(trifluoromethoxy)phenyl]-6,7-dihydro-5H-cyclopenta[d]pyridazin-4-one] | 33 |
| CNCCn1cncc(Nc2nn(-c3ccc(OC(F)(F)F)cc3)c(=O)c3c2CCC3)c1=O [Example 128, 1-[[1-[2-(Methylamino)ethyl]-6-oxo-pyrimidin-5-yl]amino]-3-[4-(trifluoromethoxy)phenyl]-6,7-dihydro-5H-cyclopenta[d]pyridazin-4-one] | 92 |
| O=C(O)CNCCn1cccc(Nc2nn(-c3ccc(OC(F)(F)F)cc3)c(=O)c3c2CCC3)c1=O [Example 129, 2-[2-[2-Oxo-3-[[4-oxo-3-[4-(trifluoromethoxy)phenyl]-6,7-dihydro-5H-cyclopenta[d]pyridazin-1-yl]amino]-1-pyridyl]ethylamino]acetic acid] | 79 |
| NCCn1cccc(Nc2nn(-c3ccc(OC(F)(F)F)cc3)c(=O)c3c2CCC3)c1=O [Example 130, 1-[[1-(2-Aminoethyl)-2-oxo-3-pyridyl]amino]-3-[4-(trifluoromethoxy)phenyl]-6,7-dihydro-5H-cyclopenta[d]pyridazin-4-one] | 62 |
| O=c1c(Nc2nn(-c3ccc(OC(F)(F)F)cc3)c(=O)c3c2CCC3)cccn1CC1CCCN1 (centres unmarked) [Example 131, 1-[[2-Oxo-1-(pyrrolidin-2-ylmethyl)-3-pyridyl]amino]-3-[4-(trifluoromethoxy)phenyl]-6,7-dihydro-5H-cyclopenta[d]pyridazin-4-one] | 30 |

| SMILES | IC50 [nM] |
| --- | --- |
| CN1CCc2c(Nc3cccn(C)c3=O)nn(-c3ccc(OC(F)(F)F)cc3)c(=O)c2C1 [Example 132, 6-Methyl-1-[(1-methyl-2-oxo-3-pyridyl)amino]-3-[4-(trifluoromethoxy)phenyl]-7,8-dihydro-5H-pyrido[3,4-d]pyridazin-4-one] | 87 |
| CN1CCc2c(c(Nc3cccn(C)c3=O)nn(-c3ccc(OC(F)(F)F)cc3)c2=O)C1 [Example 133, 6-Methyl-4-[(1-methyl-2-oxo-3-pyridyl)amino]-2-[4-(trifluoromethoxy)phenyl]-7,8-dihydro-5H-pyrido[3,4-d]pyridazin-1-one] | 538 |
| Cn1cccc(Nc2nn(-c3ccc(OC(F)(F)F)cc3)c(=O)c3c2CCNC3)c1=O [Example 134, 1-[(1-Methyl-2-oxo-3-pyridyl)amino]-3-[4-(trifluoromethoxy)phenyl]-5,6,7,8-tetrahydropyrido[3,4-d]pyridazin-4-one] | 521 |
| O=c1c(Nc2nn(-c3ccc(OC(F)(F)F)cc3)c(=O)c3c2CCC3)cccn1C[C@@H]1CNCCO1 [Example 135, 1-[[1-[[(2S)-Morpholin-2-yl]methyl]-2-oxo-3-pyridyl]amino]-3-[4-(trifluoromethoxy)phenyl]-6,7-dihydro-5H-cyclopenta[d]pyridazin-4-one] | 85 |
| COCCOc1ccc2c(=O)n(-c3ccc(OC(F)(F)F)cc3)nc(Nc3cccn(C)c3=O)c2c1 [Example 136, 6-(2-Methoxyethoxy)-4-[(1-methyl-2-oxo-3-pyridyl)amino]-2-[4-(trifluoromethoxy)phenyl]phthalazin-1-one] | 61 |
| COCCOc1ccc2c(Nc3cccn(C)c3=O)nn(-c3ccc(OC(F)(F)F)cc3)c(=O)c2c1 [Example 137, 7-(2-Methoxyethoxy)-4-[(1-methyl-2-oxo-3-pyridyl)amino]-2-[4-(trifluoromethoxy)phenyl]phthalazin-1-one] | 136 |
| COCCOc1cccc2c(=O)n(-c3ccc(OC(F)(F)F)cc3)nc(Nc3cccn(C)c3=O)c12 [Example 138, 5-(2-Methoxyethoxy)-4-[(1-methyl-2-oxo-3-pyridyl)amino]-2-[4-(trifluoromethoxy)phenyl]phthalazin-1-one] | 110 |
| Cn1cccc(Nc2nn(-c3ccc(OC(F)(F)F)cc3)c(=O)c3cc(C(N)=O)ccc23)c1=O [Example 139, 1-[(1-Methyl-2-oxo-3-pyridyl)amino]-4-oxo-3-[4-(trifluoromethoxy)phenyl]phthalazine-6-carboxamide] | 62 |
| CC(O)c1ccc2c(Nc3cccn(C)c3=O)nn(-c3ccc(OC(F)(F)F)cc3)c(=O)c2c1 (centres unmarked) [Example 140, 7-(1-Hydroxyethyl)-4-[(1-methyl-2-oxo-3-pyridyl)amino]-2-[4-(trifluoromethoxy)phenyl]phthalazin-1-one] | 32 |
| Cn1cccc(Nc2nn(-c3ccc(OC(F)(F)F)cc3)c(=O)c3cc(CO)ccc23)c1=O [Example 141, 7-(hydroxymethyl)-4-[(1-methyl-2-oxo-3-pyridyl)amino]-2-[4-(trifluoromethoxy)phenyl]phthalazin-1-one] | 12 |
| Cn1cccc(Nc2nn(-c3ccc(OC(F)(F)F)cc3)c(=O)c3cc(N)ccc23)c1=O [Example 142, 7-Amino-4-[(1-methyl-2-oxo-3-pyridyl)amino]-2-[4-(trifluoromethoxy)phenyl]phthalazin-1-one] | 46 |
| Cn1cccc(Nc2nn(-c3ccc(OC(F)(F)F)cc3)c(=O)c3cc(CN)ccc23)c1=O [Example 143, 7-(Aminomethyl)-4-[(1-methyl-2-oxo-3-pyridyl)amino]-2-[4-(trifluoromethoxy)phenyl]phthalazin-1-one] | 271 |
| CN(C)Cc1ccc2c(Nc3cccn(C)c3=O)nn(-c3ccc(OC(F)(F)F)cc3)c(=O)c2c1 [Example 144, 7-[(Dimethylamino)methyl]-4-[(1-methyl-2-oxo-3-pyridyl)amino]-2-[4-(trifluoromethoxy)phenyl]phthalazin-1-one] | 625 |
| CC(O)CN1CCc2c(Nc3cccn(C)c3=O)nn(-c3ccc(OC(F)(F)F)cc3)c(=O)c2C1 (centres unmarked) [Example 145, 6-(2-Hydroxypropyl)-1-[(1-methyl-2-oxo-3-pyridyl)amino]-3-[4-(trifluoromethoxy)phenyl]-7,8-dihydro-5H-pyrido[3,4-d]pyridazin-4-one] | 129 |
| Cn1cccc(Nc2nn(-c3ccc(OC(F)(F)F)cc3)c(=O)c3c2CCN(CC(C)(C)O)C3)c1=O [Example 146, 6-(2-Hydroxy-2-methyl-propyl)-1-[(1-methyl-2-oxo-3-pyridyl)amino]-3-[4-(trifluoromethoxy)phenyl]-7,8-dihydro-5H-pyrido[3,4-d]pyridazin-4-one] | 167 |
| Cn1cccc(Nc2nn(-c3ccc(OC(F)(F)F)cc3)c(=O)c3c2CCN(CCO)C3)c1=O [Example 147, 6-(2-Hydroxyethyl)-1-[(1-methyl-2-oxo-3-pyridyl)amino]-3-[4-(trifluoromethoxy)phenyl]-7,8-dihydro-5H-pyrido[3,4-d]pyridazin-4-one] | 76 |
